target: Protein cereblon (Homo sapiens, UniProt Q96SW2); assay: Crbn Fluorescence Polarization Assay
Method: In this competitive fluorescent polarization assay Cy5 conjugated lenalidomide analog (Cy5—O-Len)1 was used as a fluorescent probe. 6XHis-CRBN-DDB1 protein (200 nM) and Cy5—O-Len probe (30 nM) were combined in 20 mM HEPES pH 7, 150 mM NaCl, 0.005% Tween-20 assay buffer. 20 μL of this assay cocktail was dispensed into wells of Corning 3821 black 384-well plates. Compounds were transferred to the assay plate from a dose-response plate using a Pintool on a Biomek FXP Laboratory Automation Workstation (Beckman Coulter). The plates were incubated in the dark for 1 hour at room temperature and then read on an Envision plate reader (PerkinElmer, Massachusetts, USA). IC50 values were determined using a proprietary software RISE (Robust Investigation of Screening Experiments), developed in house on the Pipeline Pilot platform (Biovia, v. 17.2.0). Data represent the mean of three independent determinations.

IC50 [nM]	Structure (SMILES)
< 1000	O=C1CCC(N2Cc3c(CNC(=O)c4ccc(Br)cc4)cccc3C2=O)C(=O)N1 (stereo not drawn) [US20250122166, Compound 18]
< 1000	O=C1CCC(N2Cc3c(CNC(=O)c4ccc(Cl)c(C(F)(F)F)c4)cccc3C2=O)C(=O)N1 (stereo not drawn) [US20250122166, Compound 21]
< 1000	O=C1CCC(N2Cc3c(CNC(=O)c4ccc(Cl)cc4Cl)cccc3C2=O)C(=O)N1 (stereo not drawn) [US20250122166, Compound 28]

From BindingDB's records for patent US20250122166 (ST. JUDE CHILDREN''S RESEARCH HOSPITAL, INC., 2025)
